Assay results from publication PMC7957565 (Molecules, 2021).

Assays:
AChE (from electric eel) = molecular target: T1, AChE (from electric eel) (Electrophorus electricus, UniProt O42275); test: biochemical; conditions: eeAChE; for IC50: mean ± spread
T1 construct: purchased Sigma-Aldrich

[1] = molecular target: butyrylcholinesterase (BuChE, from equine serum) (Equus caballus, UniProt P81908); test: biochemical; conditions: eqBuChE; mean ± spread
primary cortical neurons = test: Neuroprotection against OGD/R injury, MTT cell viability; assay type: cell-based; conditions: Rattus norvegicus, Primary cortical neuron, compound 10 μM, control 100%, OGD/R group 40.4%, read-out: Cell viability (MTT) after OGD/R
Protocol: The parental compounds Clau F and CZ-7 have remarkable neuroprotective effects. To further confirm whether the derivatives retain activity, an OGD/R model was performed in primary cortical neurons, and 3-(4,5-dimethylthiazol-2-yl)-2,5-diphenyltetrazolium bromide (MTT) assays were used to test cell viability. […]. According to the experimental results above, compound 6bd was selected as the candidate compound for the subsequent investigations.
[…]. All cell suspensions were grown in neurobasal/B27 medium with 100-U/mL penicillin and 100-μg/mL streptomycin. The cells were plated in poly-L-lysine (PLL, 0.1 mg/mL)-coated multiwell plates or chamber slides and maintained at 37 °C in a humidified atmosphere of 5% CO2 and 95% air. Seven day cultures were used for treatment. The treatment methods were similar to those used for PC12, but the concentrations of H2O2 and sodium dithionite were 100 μM and 2 mM, respectively.
Cell viability was determined by MTT assay. Cells were incubated with 5 mg/mL MTT (10 μL) at 37 °C for 4 h. The formazan crystals were dissolved, and absorbance was determined at 570 nm using a Microplate Reader (Thermo, Germany). The cell viability was expressed as a percentage of the optical density (OD) value of the control cultures.
Figure 2 Neuroprotective activity screening of 6aa–ad, 6ba–bf, 6ca–cd, and CZ-7 at 10 μM in primary cortical neurons induced by oxygen–glucose deprivation/reoxygenation (OGD/R). Neurons were exposed to […] sodium dithionite and reoxygenation. A 3-(4,5-dimethylthiazol-2-yl)-2,5-diphenyltetrazolium bromide (MTT) assay was used to test the cell viability. The absorbance of normal cells was regarded as 100%. Error bars represent the standard deviation. ### p < 0.001 vs. control; ** p < 0.05, *** p < 0.01 vs. model (means ± standard deviation, n = 6).

[2] = design: method as in PMID 29202406; conditions: cited from earlier work
[3] = system: ICR (Institute of Cancer Research) mice; conditions: oral 1 g/kg dose; cited from earlier work
in vitro = in vitro ADME; conditions: PAMPA-BBB
Protocol: A blood–brain barrier (BBB) penetration assay in vitro is essential for anti-AD drug development. […] The compounds’ blood–brain barrier penetration was evaluated by using the parallel artificial membrane permeation assay (PAMPA) described by Di et al.. The two commercial drugs were purchased from Aladdin (China). Porcine brain lipid was obtained from Sigma (China). The donor microplate (polyvinylidene fluoride (PVDF) membrane, pore size 0.45 μm) and acceptor microplate were both from Millipore (China). The 96-well ultraviolet (UV) plate (COSTAR) was from Corning Incorporated (USA). The detailed procedure was described in [26, 27].

[4] = Singlet oxygen scavenging by ESR spectroscopy (TEMP, UVA light); assay type: physicochemical; conditions: 10^−2 mol/L compound, 5 × 10^−2 mol/L TEMP in DMSO, UVA light 1 min
Protocol: Oxidative stress caused by reactive oxygen (for example, singlet oxygen and hydroxyl radical) is related to the death of neurons and the formation of intracellular Aβ oligomer. Drugs designed to prevent the formation or removal of free radicals in the brain are beneficial for AD. The main technique for detecting organic free radicals is electron spin resonance (ESR) spectroscopy. This technology can detect radical concentrations on the order of 10 nM or less under favorable conditions and has high sensitivity. Therefore, compound 6bd was tested for its ability to scavenge active oxygen by using ESR spectroscopy. For comparison, edaravone (Eda) was used as a reference.
ESR signals were recorded with a 10 mW incident microwave and […] field modulation of 1 G. The scan width was 150 G for 2, 2, 6, 6-tetramethylpiperidine (TEMP) experiments. All measurements were performed at room temperature (RT). Briefly, 5 × 10^−2 mol/L TEMP and 10^−2 mol/L 6bd or Eda were mixed in DMSO, and ESR signals were obtained after exposure to UVA light for 1 min.

butyrylcholinesterase (BuChE, from equine serum), sequence (P81908 whole entry): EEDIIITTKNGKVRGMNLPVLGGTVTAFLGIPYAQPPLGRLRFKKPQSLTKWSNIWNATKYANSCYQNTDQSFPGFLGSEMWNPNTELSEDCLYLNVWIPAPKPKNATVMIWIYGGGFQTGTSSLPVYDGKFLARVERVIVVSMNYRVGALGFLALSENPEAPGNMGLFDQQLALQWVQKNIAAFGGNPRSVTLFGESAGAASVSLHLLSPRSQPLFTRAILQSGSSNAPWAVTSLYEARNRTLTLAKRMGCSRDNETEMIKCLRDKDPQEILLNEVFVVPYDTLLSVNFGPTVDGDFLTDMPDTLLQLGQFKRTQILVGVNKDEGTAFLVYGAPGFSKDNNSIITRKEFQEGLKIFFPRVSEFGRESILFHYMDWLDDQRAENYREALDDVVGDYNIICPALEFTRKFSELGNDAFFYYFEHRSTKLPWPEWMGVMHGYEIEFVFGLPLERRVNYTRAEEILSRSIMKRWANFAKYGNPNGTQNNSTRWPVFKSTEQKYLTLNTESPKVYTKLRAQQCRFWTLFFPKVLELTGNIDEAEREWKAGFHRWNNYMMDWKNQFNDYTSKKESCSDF
T1 sequence (O42275 24-633): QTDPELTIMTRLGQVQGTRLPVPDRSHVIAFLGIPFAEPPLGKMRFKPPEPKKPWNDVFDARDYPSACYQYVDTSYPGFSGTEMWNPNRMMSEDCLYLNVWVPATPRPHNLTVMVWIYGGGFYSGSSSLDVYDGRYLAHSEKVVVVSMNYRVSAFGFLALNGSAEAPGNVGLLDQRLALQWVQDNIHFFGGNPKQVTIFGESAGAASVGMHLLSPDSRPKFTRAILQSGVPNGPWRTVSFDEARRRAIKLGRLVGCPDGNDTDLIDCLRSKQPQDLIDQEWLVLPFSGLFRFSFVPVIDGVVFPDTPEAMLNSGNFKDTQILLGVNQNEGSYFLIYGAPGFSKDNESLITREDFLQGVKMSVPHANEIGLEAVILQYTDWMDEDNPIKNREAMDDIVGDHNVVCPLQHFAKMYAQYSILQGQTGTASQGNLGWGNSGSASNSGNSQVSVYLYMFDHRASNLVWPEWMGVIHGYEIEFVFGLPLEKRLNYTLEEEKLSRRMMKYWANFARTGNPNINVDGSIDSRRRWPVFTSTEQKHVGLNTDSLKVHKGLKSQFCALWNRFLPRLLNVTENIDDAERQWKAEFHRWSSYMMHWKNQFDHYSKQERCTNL

Row | Structure (SMILES) | IC50 (AChE (from electric eel)) | IC50 [1] | viability at 10 µM (primary cortical neurons) | inhibition at 100 µM (AChE (from electric eel); compound at 100 μM, read-out: AChE inhibition rate (%) in 100 μM) | Exposure in the brain relative to plasma [2] | Acute toxicity finding [3] | Brain penetration classification (in vitro) | Papp (in vitro; means ± SD of three independent experiments, read-out: Permeability Pe, Experiment) | Singlet oxygen scavenging compared with edaravone (Eda) [4]
1 | CC1(C)C=Cc2c(c(/C=C/C(=O)NCC3CCN(Cc4ccccc4F)CC3)cc3c2[nH]c2ccc(C(C)(C)C)cc23)O1 [Compound 6bb, (E)-3-(8-(tert-Butyl)-3,3-dimethyl-3,11-dihydropyrano[3,2-a]carbazol-5-yl)-N-((1-(2-fluorobenzyl)piperidin-4-yl)methyl)acrylamide] | 4.08 ± 0.12 µM | 5.63 ± 0.31 µM | 109% | – | – | – | – | – | –
2 | Cc1cc2c([nH]c3ccc(C(C)(C)C)cc32)c2c1OC(C)(C)C=C2 [CZ-7, reference compound] | – | 59.5 ± 5.62 µM | 113% | 32.5 ± 6.52% | 4.3 fold | no toxic side effects | – | – | –
3 | CC1(C)C=Cc2c(c(/C=C/C(=O)NCC3CCN(Cc4ccc(Cl)cc4)CC3)cc3c2[nH]c2ccc(C(C)(C)C)cc23)O1 [Compound 6bf, (E)-3-(8-(tert-Butyl)-3,3-dimethyl-3,11-dihydropyrano[3,2-a]carbazol-5-yl)-N-((1-(4-chlorobenzyl)piperidin-4-yl)methyl)acrylamide] | 1.63 ± 0.3 µM | 12.1 ± 0.76 µM | 107% | – | – | – | – | – | –
4 | CC1(C)C=Cc2c(c(/C=C/C(=O)NCC3CCN(Cc4ccccc4Cl)CC3)cc3c2[nH]c2ccc(C(C)(C)C)cc23)O1 [Compound 6bd, (E)-3-(8-(tert-Butyl)-3,3-dimethyl-3,11-dihydropyrano[3,2-a]carbazol-5-yl)-N-((1-(2-chlorobenzyl)piperidin-4-yl)methyl)acrylamide] | 4.34 ± 0.46 µM | 5.46 ± 0.61 µM | 126% | – | – | – | good brain penetration | 4.38 ± 0.05 ×10⁻⁶ cm/s | stronger effect
5 | CC1(C)C=Cc2c(c(/C=C/C(=O)NCC3CCN(Cc4cccc(Cl)c4)CC3)cc3c2[nH]c2ccc(C(C)(C)C)cc23)O1 [Compound 6be, (E)-3-(8-(tert-Butyl)-3,3-dimethyl-3,11-dihydropyrano[3,2-a]carbazol-5-yl)-N-((1-(3-chlorobenzyl)piperidin-4-yl)methyl)acrylamide] | 1.69 µM | 6.36 ± 1.21 µM | 105% | – | – | – | – | – | –
